This is an account of results in patent publication US11999727B2 (Tango Therapeutics, Inc., priority 2020, dated 2024).

Experiment [1] relates to MTAP-null SW1573 cancer cell line. The experiment can be described thus: 7-day viability assay, combination with an exemplar MTAP-null-selective PRMT5 inhibitor, SW1573. Conditions: in combination with an exemplar MTAP-null-selective PRMT5 inhibitor. Format: cell-based. The text has this:
FIG. 3. Combination of AG-270, a MAT2A inhibitor effect is synergistic according to the HSA model, where the synergy score quantifies the excess of the highest single compound response

For experiment [2] the test system is unchanged. Put plainly: Combination viability assay (CellTiter-Glo, 7 days), SW1573 MTAP-deleted cells. Format: cell-based. The conditions noted are these: 7-day viability assay, combination partner: exemplar MTAPnull-selective PRMT5 inhibitor. The protocol:
A SW1573 MTAP-isogenic cell line pair was generated by either reconstituting MTAP gene expression, or by introducing an empty control vector, in the MTAP-deleted SW1573 parental cell line. The cell lines were maintained in DMEM+10% FBS in a humidified, 5% CO2 tissue culture incubator. All test compounds are maintained as 10 mM DMSO stocks.
On Day 0, MTAP-intact and MTAP-deleted cells are seeded in a 384-well plate, and incubated in a humidified, 5% CO2 tissue culture incubator for 16-24 hours. On Day 1, the test compounds are dispensed to wells at defined concentrations (n=2), and the volume of DMSO is normalized to highest class volume. The compound-treated plates are incubated for 7 days in a humidified, 5% CO2 tissue culture incubator.
On Day 7, the plates are removed from the tissue culture incubator and allowed to equilibrate to room temperature. Relative viability is assessed by addition of CellTiter-Glo reagent, and data are plotted as % of DMSO control for each compound in each cell line, with a 4-parameter fit non-linear regression model (GraphPad Prism). Synergy is determined according to the HSA model by the Combenefit software package (Version 2.021).
For orientation: In ATP-based viability assays light output follows the ATP content of the culture.

Experiment [3] has as its target T1, PRMT5 (Homo sapiens, UniProt O14744).
T1 construct: purchased Viva (custom protein)
The experiment can be described thus: PRMT5 biochemical IC50 assay with SAM as cofactor. Conditions: PRMT5, SAM as cofactor; read-out: SAM IC50.

The target of experiment [4] is T1, PRMT5. Put plainly: PRMT5 biochemical IC50 assay with no cofactor. The conditions noted are these: PRMT5, no cofactor; read-out: No Cofactor/rel IC50. The text has this:
Table 1 indicates IC50 values (μM) against PRMT5 for exemplary compounds in the presence of SAM as cofactor, with no cofactor, and with MTA as cofactor, respectively (columns 4-6). […] Ki values can be calculated from the IC50 values as described in the Examples section. As detailed in the Examples section, for the assay performed in the presence of SAM, IC50=Ki×1.5 (Ki=IC50/1.5).

The target of experiment [5] is T1, PRMT5. Put plainly: PRMT5 biochemical IC50 assay with MTA as cofactor. The conditions noted are these: PRMT5, MTA as cofactor; read-out: MTA IC50.
The test system of experiment [6] is HAP1 MTAP-intact cell line. Put plainly: SDMA in-cell western assay, HAP1 MTAP-intact. Format: cell-based. The conditions noted are these: Homo sapiens, HAP1, SDMA in-cell western, HAP1 MTAP-intact; read-out: MTAP HAP1 intact IC50. The method, boiled down: (§1)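 IC50 values come from SDMA signal quantified by in-cell western in two HAP1 lines, one with native MTAP levels and one lacking MTAP.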

Experiment [7] has as its system HAP1 MTAP-deleted cell line. The experiment can be described thus: SDMA in-cell western assay, HAP1 MTAP-deleted. Format: cell-based. Conditions: for IC50: Homo sapiens, HAP1, SDMA in-cell western, HAP1 MTAP-deleted; for MTAP intact/deleted ratio: SDMA in-cell western. The method, boiled down: as §1
The subject of experiment [8] is HAP1 MTAP-deleted cell line. The experiment can be described thus: Viability assay, MTAP-deleted cell line. The class given is cell-based. Conditions: Homo sapiens, read-out: HAP1 MTAP deleted viability. The text has this:
Table 1 additionally indicates IC50 values in a viability assay for the MTAP-deleted cell line (column 10), indicating the effect of treatment with compound on cell survival.

[9] abbreviates: read-out: HAP1 MTAP deleted IC50.
[10] abbreviates: IC50 ratio HAP1 MTAP-intact / HAP1 MTAP-deleted.
The mark [11] stands for this setting: HAP1, viability assay, HAP1 MTAP-deleted.
Setting [12] is: HAP1, viability assay, MTAP-deleted cell line.
Setting [13] is: read-out: HAP 1 MTAP deleted IC50.

T1 sequence (O14744 whole entry): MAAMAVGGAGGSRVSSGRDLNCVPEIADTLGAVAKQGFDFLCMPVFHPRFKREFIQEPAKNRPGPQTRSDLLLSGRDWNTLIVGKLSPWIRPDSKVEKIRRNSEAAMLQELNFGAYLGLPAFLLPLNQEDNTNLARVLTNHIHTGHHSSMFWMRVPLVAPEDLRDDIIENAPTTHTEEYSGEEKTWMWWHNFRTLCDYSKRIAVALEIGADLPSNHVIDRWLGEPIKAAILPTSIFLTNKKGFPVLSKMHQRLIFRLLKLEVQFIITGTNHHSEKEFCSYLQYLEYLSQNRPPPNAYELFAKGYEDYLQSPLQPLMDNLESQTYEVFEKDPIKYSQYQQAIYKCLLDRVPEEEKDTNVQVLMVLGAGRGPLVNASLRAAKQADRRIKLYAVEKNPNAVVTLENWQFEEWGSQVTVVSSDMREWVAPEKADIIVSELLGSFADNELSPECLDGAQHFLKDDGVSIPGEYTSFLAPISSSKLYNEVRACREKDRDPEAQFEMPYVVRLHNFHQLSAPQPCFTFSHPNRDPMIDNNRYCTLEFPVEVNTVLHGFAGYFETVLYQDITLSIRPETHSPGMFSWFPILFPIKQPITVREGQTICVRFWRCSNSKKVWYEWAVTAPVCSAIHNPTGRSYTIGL
T1 sequence (Q9BQA1 whole entry partner): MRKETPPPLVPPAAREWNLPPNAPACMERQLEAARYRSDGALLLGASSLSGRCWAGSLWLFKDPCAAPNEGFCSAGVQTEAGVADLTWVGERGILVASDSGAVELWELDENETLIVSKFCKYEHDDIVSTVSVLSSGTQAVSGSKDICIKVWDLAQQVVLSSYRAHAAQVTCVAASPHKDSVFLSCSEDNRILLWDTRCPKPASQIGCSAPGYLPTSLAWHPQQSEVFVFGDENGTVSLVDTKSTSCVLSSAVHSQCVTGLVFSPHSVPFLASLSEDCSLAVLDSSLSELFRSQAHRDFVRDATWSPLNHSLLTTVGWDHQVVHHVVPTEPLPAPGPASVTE

With `O=C(Nc1ccc2[nH]nc(-c3ccncc3)c2c1)[C@@H]1CCN(CC(=O)N2CCN(c3ccc(-c4ncccn4)cc3)CC2)C1` [SCH772984], in experiment [1], the “Effect of the combination on cellular viability” value (“Effect of the combination” below) was “enhanced cellular viability defect”. The “cellular viability, combination with an exemplar MTAP-null-selective PRMT5 inhibitor” value in experiment [2] is “enhanced cellular viability defects”.
`C=CC(=O)N1CCN(c2nc(=O)n(-c3c(C)ccnc3C(C)C)c3nc(-c4c(O)cccc4F)c(F)cc23)[C@@H](C)C1` [AMG-510]: the “Effect of the combination” value in experiment [1] is “enhanced cellular viability defects”. Moreover, the “cellular viability, combination with an exemplar MTAP-null-selective PRMT5 inhibitor” value in experiment [2] is given as “enhanced cellular viability defects”.
As to `CC(C)Nc1cc(-c2c[nH]c(C(=O)N[C@H](CO)c3cccc(Cl)c3)c2)c(Cl)cn1` [ulixertinib], in experiment [1], the “Effect of the combination” value was “enhanced cellular viability defect”. In addition, the “cellular viability, combination with an exemplar MTAP-null-selective PRMT5 inhibitor” value in experiment [2] was “enhanced cellular viability defects”.
On to `C[C@@H]1CC[C@@H](c2cc(F)c(F)c(Cl)c2)N(C(=O)C(=O)Nc2cncc(C(N)=O)c2)C1` (single isomer, unassigned) [Compound 834], for which the IC50 was 50 to 500 nM at PRMT5 [3]; 50 to 500 nM at PRMT5 [4]; less than 50 nM on PRMT5 [5]; greater than 1000 nM in experiment [6]; 100 to 1000 nM in experiment [7] (setting [9]); 1000 to 10000 nM in experiment [8] (setting [11]). For the same molecule, in experiment [7] (setting [10]), the MTAP intact/deleted ratio result was “A (an IC50 ratio greater than or equal to 10 fold)”.
Regarding `Cc1cc(NC(=O)C(=O)N2C[C@H](C)CC[C@H]2c2ccc3scc(CCN(C)C)c3c2)cnc1N` (racemic) [Compound 1142, N-(6-amino-5-methyl-3-pyridyl)-2-[(2S,5R)-2-[3-[2-(dimethylamino)ethyl]benzothiophen-5-yl]-5-methyl-1-piperidyl]-2-oxo-acetamide], the IC50 at PRMT5 [3] is 50 to 500 nM; at PRMT5 [4], 50 to 500 nM; at PRMT5 [5], less than 50 nM; in experiment [6], less than 100 nM; in experiment [7] (setting [9]), less than 100 nM; in experiment [8] (setting [12]) it was less than 1000 nM. In addition, in experiment [7] (IC50 ratio HAP1 MTAP-intact vs HAP1 MTAP-deleted), the MTAP intact/deleted ratio result is listed as “B (an IC50 ratio greater than or equal to 3 fold but lower than 10 fold)”.
Turning to `COc1ccc([C@@H]2CC[C@@H](C)CN2C(=O)C(=O)Nc2cncc(C(N)=O)c2)cc1` (racemic) [Compound 228, rac-5-{2-[(2R,5S)-2-(4-Methoxyphenyl)-5-methylpiperidin-1-yl]-2-oxoacetamido}pyridine-3-carboxamide], the IC50 on PRMT5 [3] was 50 to 500 nM; on PRMT5 [4], 50 to 500 nM; at PRMT5 [5], 50 to 500 nM; in experiment [6] it was greater than 1000 nM; in experiment [7] (setting [9]), 100 to 1000 nM; in experiment [8] (setting [12]) it was 1000 to 10000 nM. In experiment [7] (setting [10]), the MTAP intact/deleted ratio result is given as “A (an IC50 ratio greater than or equal to 10 fold)”.
For `Cc1nc2cc([C@@H]3CC[C@@H](C)CN3C(=O)C(=O)Nc3cnc(N)c(C)c3)ccc2[nH]1` (single isomer, unassigned) [Compound 963], the IC50 was greater than 500 nM on PRMT5 [3]; greater than 500 nM on PRMT5 [4]; greater than 500 nM at PRMT5 [5]; greater than 1000 nM in experiment [6]; greater than 1000 nM in experiment [7] (setting [13]); greater than 10000 nM in experiment [8] (setting [12]). Further, the MTAP intact/deleted ratio result in experiment [7] (setting [10]) is on record as “B (an IC50 ratio greater than or equal to 3 fold but lower than 10 fold)”.
On to `C[C@@H]1CC[C@@H](c2ccc3c(c2)C(=O)NC3)N(C(=O)C(=O)Nc2cncc(C(N)=O)c2)C1` (single isomer, unassigned) [Compound 746], for which the IC50 was 50 to 500 nM on PRMT5 [3]; less than 50 nM on PRMT5 [4]; less than 50 nM at PRMT5 [5]; greater than 1000 nM in experiment [6]; 100 to 1000 nM in experiment [7] (setting [9]); 1000 to 10000 nM in experiment [8] (setting [11]). Besides, the MTAP intact/deleted ratio entry in experiment [7] (setting [10]) is given as “A (an IC50 ratio greater than or equal to 10 fold)”.
Take `C[C@H]1CC[C@H](c2cccc3[nH]ncc23)N(C(=O)C(=O)Nc2cncc(C(N)=O)c2)C1` (single isomer, unassigned) [Compound 897]: the IC50 on PRMT5 [3] is 50 to 500 nM; at PRMT5 [4], 50 to 500 nM; on PRMT5 [5] it was less than 50 nM; in experiment [6], greater than 1000 nM; in experiment [7] (setting [13]), less than 100 nM; in experiment [8] (setting [12]) it was 1000 to 10000 nM. Also, in experiment [7] (setting [10]), the MTAP intact/deleted ratio result is given as “A (an IC50 ratio greater than or equal to 10 fold)”.
For `C[C@@H]1CN(C(=O)C(=O)Nc2cncc(C(N)=O)c2)C[C@@H]2CCCC[C@@H]21` (racemic) [Compound 541, 5-[[2-[(4S,4aR,8aR)-4-Methyl-3,4,4a,5,6,7,8,8a-octahydro-1H-isoquinolin-2-yl]-2-oxo-acetyl]amino]pyridine-3-carboxamide], the IC50 is 50 to 500 nM at PRMT5 [3]; greater than 500 nM at PRMT5 [4]; 50 to 500 nM at PRMT5 [5]; greater than 1000 nM in experiment [6]; 100 to 1000 nM in experiment [7] (setting [13]); 1000 to 10000 nM in experiment [8] (HAP1, viability IC50, MTAP-deleted cell line). The MTAP intact/deleted ratio entry in experiment [7] (setting [10]) is “A (an IC50 ratio greater than or equal to 10 fold)”.
